Source: US20230280220A1, “Benzimidazole Derivative Compounds and Uses Thereof” (Pfizer Inc., priority 2019, published 2023)

Target: ITK enzyme (ITK FL, N-Flag and C-His tagged) (Homo sapiens (Human), UniProt Q08881)
Assay: ITK enzyme assay (IL-2-inducible T-cell kinase activity)
Format: biochemical
Conditions: geometric mean of count n
Experimental: IL-2-Inducible T-Cell Kinase (ITK) Activity, IC50 (nM)
ITK activity was determined by measuring the effect of a test compound in an ITK enzyme assay.
1.0 M HEPES Buffer pH 7.5 solution was prepared as follows: 238.3 g HEPES free acid (Sigma) and 800 mL of water were combined, and the mixture was stirred until complete dissolution. The pH was adjusted to 7.5 via titration with 5N NaOH and the volume adjusted to 1000 mL. The solution was filtered and sterilized.
ITK assay buffer was prepared as follows: 50 mL of HPLC-grade water was treated with 2 mL of 1.0 M HEPES Buffer, 500 μL of 2% Gelatin (Sigma), 1.0 mL of aqueous MgCl2 solution (1.0 M), and 1.0 mL of aqueous glutathione solution (0.5 M), and the solution was mixed. The solution was brought to 99 mL in a graduated cylinder by addition of water and sterilized through a 0.2 μm filter. 0.1 mL of Brij-35™ Surfact-Amps™ Detergent Solution (10% w/v aqueous solution, ThermoFisher) and 1.0 mL of ATP (Teknova, 100 mM) were added and the solution was mixed.
The resulting solution was stored on ice. 30 Minutes prior to use, the enzyme solution was removed from ice and equilibrated to RT by incubation in a RT water bath.
Preparation of 4×ITK substrate solution was as follows: 50 mL of ITK assay buffer was treated with 100 μL of BTK peptide (China Peptide Company, 2 mM stock solution in DMSO). The tube was capped, mixed by gently inverting the tube, and then stored on ice. 30 Minutes prior to use, the substrate solution was removed from ice and equilibrated to RT by incubation in a RT water bath.
At the time of assay, 7.5 μL of the 1.33×ITK enzyme solution was added to plate wells containing 0.1 μL of varying concentrations of test compound in DMSO. The plate was incubated 30 min at RT. The plate wells were each treated with 2.5 uL of the 4×ITK substrate solution and the plate was sealed (TopSeal™, Perkin Elmer). The plate was spun at 1000 rpm for 30 sec and then incubated for 60 min at RT. The seal was removed, and each well was treated with 10 μL of Stop/Detect Buffer (20 mM HEPES pH 7.5, 0.01% gelatin, 1 nM LANCE PT66 (Perkin Elmer), 16.5 μg/ml Surelight APC (Perkin Elmer), 10 mM EDTA, 250 mM NaCl). The plate was again covered and was spun at 1000 rpm for 30 seconds. The plate was allowed to incubate overnight at RT and in a closed carrier to reduce dehydration. The seal was removed, and the fluorescence was read with a plate reader with an excitation wavelength of […] and an emission wavelength of 615 nm.

Sequence of ITK enzyme (ITK FL, N-Flag and C-His tagged) (Q08881 whole entry): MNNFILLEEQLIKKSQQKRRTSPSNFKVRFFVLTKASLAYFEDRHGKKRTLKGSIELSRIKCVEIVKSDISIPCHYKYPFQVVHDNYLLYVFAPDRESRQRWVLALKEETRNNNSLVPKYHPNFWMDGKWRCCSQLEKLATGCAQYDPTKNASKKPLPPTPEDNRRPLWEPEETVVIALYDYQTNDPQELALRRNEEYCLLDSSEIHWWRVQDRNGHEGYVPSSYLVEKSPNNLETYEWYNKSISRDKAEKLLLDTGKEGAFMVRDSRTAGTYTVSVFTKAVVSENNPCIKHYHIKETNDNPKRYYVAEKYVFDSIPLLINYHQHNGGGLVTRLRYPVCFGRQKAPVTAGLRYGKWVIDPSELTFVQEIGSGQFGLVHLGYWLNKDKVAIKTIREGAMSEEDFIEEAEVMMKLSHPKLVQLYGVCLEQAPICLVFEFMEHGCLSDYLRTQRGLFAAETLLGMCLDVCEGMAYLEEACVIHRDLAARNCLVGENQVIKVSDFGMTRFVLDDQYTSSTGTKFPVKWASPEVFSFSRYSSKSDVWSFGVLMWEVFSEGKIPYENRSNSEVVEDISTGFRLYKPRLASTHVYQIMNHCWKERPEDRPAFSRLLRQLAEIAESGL

Row | Compound | IC50 [µM]
1 | Cc1cc2[nH]c(-c3n[nH]c4c3C[C@@H]3C[C@]3(C)C4)nc2cc1N(C)C(=O)C(C)C1CCOCC1 (stereo partly drawn) [Example 5, N-methyl-N-(6-methyl-2-((4aS,5aR)-5a-methyl-1,4,4a,5,5a,6-hexahydrocyclopropa[f]indazol-3-yl)-1H-benzo[d]imidazol-5-yl)-2-(tetrahydro-2H-pyran-4-yl)propanamide] | 0.005
2 | C[C@@H](C(=O)N(C)c1cc(CO)c2[nH]c(-c3n[nH]c4c3C[C@@H]3C[C@]3(C)C4)nc2c1)N1CCOCC1 [Example 45, (S)—N-(7-(hydroxymethyl)-2-((4aS,5aR)-5a-methyl-1,4,4a,5,5a,6-hexahydrocyclopropa[f]indazol-3-yl)-1H-benzo[d]imidazol-5-yl)-N-methyl-2-morpholinopropanamide] | 0.017
3 | Cc1cc2[nH]c(-c3n[nH]c4c3C[C@@H]3C[C@]3(C)C4)nc2cc1N(C)C(=O)CN1CCOCC1 [Example 34, N-Methyl-N-(6-methyl-2-((4aS,5aR)-5a-methyl-1,4,4a,5,5a,6-hexahydrocyclopropa[f]indazol-3-yl)-1H-benzo[d]imidazol-5-yl)-2-morpholinoacetamide] | 0.01
4 | CN(C(=O)CC1CCOCC1)c1ccc2[nH]c(-c3n[nH]c4c3C[C@@H]3C[C@]3(C)C4)nc2c1 [Example 10, N-methyl-N-(2-((4aS,5aR)-5a-methyl-1,4,4a,5,5a,6-hexahydrocyclopropa[f]indazol-3-yl)-1H-benzo[d]imidazol-5-yl)-2-(tetrahydro-2H-pyran-4-yl)acetamide] | 0.007
5 | COc1cc(N(C)C(=O)[C@H](C)N2CCOCC2)cc2nc(-c3n[nH]c4c3C[C@@H]3C[C@]3(C)C4)[nH]c12 [Example 40, (S)—N-(7-methoxy-2-((4aS,5aR)-5a-methyl-1,4,4a,5,5a,6-hexahydrocyclopropa[f]indazol-3-yl)-1H-benzo[d]imidazol-5-yl)-N-methyl-2-morpholinopropanamide] | 0.019
6 | C[C@@H](C(=O)N(C)c1cc(C#N)c2[nH]c(-c3n[nH]c4c3C[C@@H]3C[C@]3(C)C4)nc2c1)C1CCOCC1 [Example 55, (R)—N-(7-cyano-2-((4aS,5aR)-5a-methyl-1,4,4a,5,5a,6-hexahydrocyclopropa[f]indazol-3-yl)-1H-benzo[d]imidazol-5-yl)-N-methyl-2-(tetrahydro-2H-pyran-4-yl)propanamide] | 0.005
7 | Cc1cc(N(C)C(=O)[C@H](C)N2CCOCC2)cc2nc(-c3n[nH]c4c3C[C@@H]3C[C@]3(C)C4)[nH]c12 [Example 50, (S)—N-methyl-N-(7-methyl-2-((4aS,5aR)-5a-methyl-1,4,4a,5,5a,6-hexahydrocyclopropa[f]indazol-3-yl)-1H-benzo[d]imidazol-5-yl)-2-morpholinopropanamide] | 0.016
8 | C[C@@H](C(=O)N(C)c1cc(F)c2[nH]c(-c3n[nH]c4c3C[C@@H]3C[C@]3(C)C4)nc2c1)N1CCOCC1 [Example 15, (S)—N-(7-fluoro-2-((4aS,5aR)-5a-methyl-1,4,4a,5,5a,6-hexahydrocyclopropa[f]indazol-3-yl)-1H-benzo[d]imidazol-5-yl)-N-methyl-2-morpholinopropanamide] | 0.004
9 | COCc1cc(N(C)C(=O)[C@H](C)N2CCOCC2)cc2nc(-c3n[nH]c4c3C[C@@H]3C[C@]3(C)C4)[nH]c12 [Example 42, (S)—N-(7-(methoxymethyl)-2-((4aS,5aR)-5a-methyl-1,4,4a,5,5a,6-hexahydrocyclopropa[f]indazol-3-yl)-1H-benzo[d]imidazol-5-yl)-N-methyl-2-morpholinopropanamide] | 0.038
10 | C[C@@H](C(=O)N(C)c1cc(Cl)c2[nH]c(-c3n[nH]c4c3C[C@@H]3C[C@]3(C)C4)nc2c1)N1CCOCC1 [Example 43, (S)—N-(7-chloro-2-((4aS,5aR)-5a-methyl-1,4,4a,5,5a,6-hexahydrocyclopropa[f]indazol-3-yl)-1H-benzo[d]imidazol-5-yl)-N-methyl-2-morpholinopropanamide] | 0.016
11 | Cc1cc2[nH]c(-c3n[nH]c4c3C[C@@H]3C[C@]3(C)C4)nc2cc1N(C)C(=O)CC1CCOCC1 [Example 35, N-Methyl-N-(6-methyl-2-((4aS,5aR)-5a-methyl-1,4,4a,5,5a,6-hexahydrocyclopropa[f]indazol-3-yl)-1H-benzo[d]imidazol-5-yl)-2-(tetrahydro-2H-pyran-4-yl)acetamide] | 0.006
12 | Cc1cc2[nH]c(-c3n[nH]c4c3C[C@@H]3C[C@]3(C)C4)nc2cc1N(C)C(=O)[C@H](C)C1CCOCC1 [Example 4, (R)—N-methyl-N-(6-methyl-2-((4aS,5aR)-5a-methyl-1,4,4a,5,5a,6-hexahydrocyclopropa[f]indazol-3-yl)-1H-benzo[d]imidazol-5-yl)-2-(tetrahydro-2H-pyran-4-yl)propanamide] | 0.003
13 | C[C@@H](C(=O)N(C)c1cc(F)c2[nH]c(-c3n[nH]c4c3C[C@@H]3C[C@]3(C)C4)nc2c1)C1CCOCC1 [Example 12, (R)—N-(7-fluoro-2-((4aS,5aR)-5a-methyl-1,4,4a,5,5a,6-hexahydrocyclopropa[f]indazol-3-yl)-1H-benzo[d]imidazol-5-yl)-N-methyl-2-(tetrahydro-2H-pyran-4-yl)propanamide] | 0.003
14 | Cc1cc2[nH]c(-c3n[nH]c4c3C[C@@H]3C[C@]3(C)C4)nc2cc1N(C)C(=O)CN1CCOC(CO)C1 (stereo partly drawn) [Example 27, 2-(2-(Hydroxymethyl)morpholino)-N-methyl-N-(6-methyl-2-((4aS,5aR)-5a-methyl-1,4,4a,5,5a,6-hexahydrocyclopropa[f]indazol-3-yl)-1H-benzo[d]imidazol-5-yl)acetamide] | 0.017
15 | C[C@@H](C(=O)N(C)c1cc(C(F)F)c2[nH]c(-c3n[nH]c4c3C[C@@H]3C[C@]3(C)C4)nc2c1)N1CCOCC1 [Example 48, (S)—N-(7-(difluoromethyl)-2-((4aS,5aR)-5a-methyl-1,4,4a,5,5a,6-hexahydrocyclopropa[f]indazol-3-yl)-1H-benzo[d]imidazol-5-yl)-N-methyl-2-morpholinopropanamide] | 0.017
16 | C[C@@H](C(=O)N(C)c1cc2nc(-c3n[nH]c4c3C[C@@H]3C[C@]3(C)C4)[nH]c2c(F)c1F)N1CCOCC1 [Example 24, (S)—N-(6,7-difluoro-2-((4aS,5aR)-5a-methyl-1,4,4a,5,5a,6-hexahydrocyclopropa[f]indazol-3-yl)-1H-benzo[d]imidazol-5-yl)-N-methyl-2-morpholinopropanamide] | 0.008
17 | C[C@@H](C(=O)N(C)c1cc(Br)c2[nH]c(-c3n[nH]c4c3C[C@@H]3C[C@]3(C)C4)nc2c1)N1CCOCC1 [Example 37, (S)—N-(7-bromo-2-((4aS,5aR)-5a-methyl-1,4,4a,5,5a,6-hexahydrocyclopropa[f]indazol-3-yl)-1H-benzo[d]imidazol-5-yl)-N-methyl-2-morpholinopropanamide] | 0.009
18 | Cc1cc2[nH]c(-c3n[nH]c4c3C[C@@H]3C[C@]3(C)C4)nc2cc1N(C)C(=O)CN1C[C@@H](C)O[C@H](C)C1 [Example 32, 2-((2R,6R)-2,6-Dimethylmorpholino)-N-methyl-N-(6-methyl-2-((4aS,5aR)-5a-methyl-1,4,4a,5,5a,6-hexahydrocyclopropa[f]indazol-3-yl)-1H-benzo[d]imidazol-5-yl)acetamide] | 0.016
19 | Cc1cc2[nH]c(-c3n[nH]c4c3C[C@@H]3C[C@]3(C)C4)nc2cc1N(C)C(=O)CN1CCO[C@@H](C)C1 [Example 31, N-Methyl-N-(6-methyl-2-((4aS,5aR)-5a-methyl-1,4,4a,5,5a,6-hexahydrocyclopropa[f]indazol-3-yl)-1H-benzo[d]imidazol-5-yl)-2-((S)-2-methylmorpholino)acetamide] | 0.013
20 | Cc1cc2[nH]c(-c3n[nH]c4c3C[C@@H]3C[C@]3(C)C4)nc2cc1N(C)C(=O)CN1C[C@H](C)O[C@@H](C)C1 [Example 33, 2-((2S,6S)-2,6-Dimethylmorpholino)-N-methyl-N-(6-methyl-2-((4aS,5aR)-5a-methyl-1,4,4a,5,5a,6-hexahydrocyclopropa[f]indazol-3-yl)-1H-benzo[d]imidazol-5-yl)acetamide] | 0.011
